Data: publication PMC6934184, “Selective DNA-PKcs inhibition extends the therapeutic index of localized radiotherapy and chemotherapy” (The Journal of Clinical Investigation, 2019)

Target: T1, CDK9/cyclin T1 (Homo sapiens, UniProt P50750)
T1 construct: purchased Thermo Fisher Scientific (Life Technologies) SelectScreen
Experiment: SelectScreen Adapta
Format: biochemical
Method: The in vitro kinase selectivity of NU5455 was determined using the SelectScreen Broad Assay Panel (Thermo Fisher Scientific) involving activity and binding assays (Supplemental Table 1). […] Class IA PI3Ks were measured using the p85α subunit.
Kinase [ATP] % Assay Kinase [ATP] % Assay Kinase [ATP] % Assay Kinase [ATP] % Assay
DNA-PK Km app 98.3 Z LATS2 n/a 4.7 L KIT D820E n/a 1.3 L GSK3B (GSK3 beta) Km app -2.5 Z
PIK3C3 (hVPS34) Km app 85.9 A PRKCZ (PKC zeta) Km app 4.7 Z GRK1 n/a 1.3 L BMPR2 n/a -2.5 L
PIK3C2B (PI3K-C2 beta) 10 28.9 A FGFR1 Km app 4.7 Z BRSK2 n/a 1.2 L CDC42 BPB (MRCKB) Km app -2.5 Z
SNF1LK2 Km app 26.6 Z MINK1 Km app 4.6 Z NUAK1 (ARK5) Km app 1.2 A AMPK (A2/B2/G2) n/a -2.6 L
HCK Km app 18.0 Z CSF1R (FMS) Km app 4.3 Z CDK9/cyclin K n/a 1.0 L PRKG1 Km app -2.7 Z
NEK2 Km app 17.8 Z CSNK1G3 (CK1 gamma 3) Km app 4.2 Z NUAK2 n/a 1.0 L KIT T670E n/a -2.8 L
ALK Km app 17.3 Z STK32C (YANK3) n/a 4.2 L CDK2/cyclin O n/a 0.9 L ERBB4 (HER4) Km app -2.8 Z
FGFR3 K650M n/a 16.5 L STK22D (TSSK1) Km app 4.2 Z CAMKK2 (CaMKK beta) n/a 0.9 L PLK4 n/a -2.8 L
SIK3 n/a 16.1 L TAOK3 (JIK) n/a 4.2 L FGFR3 Km app 0.9 Z GRK7 Km app -3.0 Z
LYN A Km app 15.2 Z RPS6KA4 (MSK2) Km app 4.2 Z ULK2 n/a 0.9 L MAPKAPK2 Km app -3.1 Z
BMPR1B (ALK6) n/a 14.5 L PTK2B (FAK2) Km app 4.2 Z KIT D816V n/a 0.9 L FGFR4 Km app -3.1 Z
INSRR (IRR) Km app 14.1 Z CLK2 Km app 4.1 Z CAMK1 (CaMK1) 10 0.8 A CASK n/a -3.1 L
PLK2 Km app 14.1 Z STK24 (MST3) Km app 4.1 Z PTK6 (Brk) Km app 0.7 Z GRK5 Km app -3.2 Z
PRKACA (PKA) Km app 14.0 Z CAMK1D (CaMKI delta) Km app 4.1 Z CAMK2B (CaMKII beta) Km app 0.7 Z EGFR (ErbB1) T790M Km app -3.3 Z
EIF2AK2 (PKR) n/a 13.3 L INSR Km app 4.1 Z ACVR1 (ALK2) n/a 0.7 L PAK4 Km app -3.3 Z
PRKX Km app 12.5 Z IRAK1 Km app 4.0 A ABL1 H396P n/a 0.6 L DAPK3 (ZIPK) Km app -3.4 Z
FGR Km app 12.1 Z SRC N1 Km app 3.9 Z MERTK (cMER) A708S n/a 0.6 L RET M918T n/a -3.5 L
CLK1 Km app 11.7 Z SRPK2 Km app 3.9 Z MAPKAPK5 (PRAK) Km app 0.6 Z PRKCQ (PKC theta) Km app -3.7 Z
MARK3 Km app 11.4 Z RPS6KA6 (RSK4) Km app 3.8 Z AKT1 (PKB alpha) Km app 0.5 Z CAMKK1 (CAMKKA) n/a -3.8 L
PDGFRB (PDGFR beta) Km app 11.0 Z GRK6 Km app 3.7 Z NTRK3 (TRKC) Km app 0.4 Z FLT3 D835Y Km app -3.9 Z
PRKCN (PKD3) Km app 10.7 Z PKN1 (PRK1) Km app 3.6 Z ZAP70 Km app 0.3 Z ROCK2 Km app -4.1 Z
STK16 (PKL12) n/a 10.5 L MAP3K8 (COT) 100 3.5 Z CSNK1A1 (CK1 alpha 1) Km app 0.3 Z CHUK (IKK alpha) Km app -4.2 A
FES (FPS) Km app 10.4 Z FLT4 (VEGFR3) Km app 3.5 Z MYLK (MLCK) n/a 0.2 L AXL Km app -4.2 Z
ABL1 Km app 10.4 Z GRK4 Km app 3.5 Z MKNK2 (MNK2) n/a 0.2 L PIM2 Km app -4.3 Z
MUSK Km app 10.3 Z FRK (PTK5) Km app 3.4 Z AMPK (A1/B1/G3) n/a 0.2 L PAK1 Km app -4.4 Z
MAPK1 (ERK2) Km app 10.1 Z FYN A n/a 3.3 L MAP3K2 (MEKK2) n/a 0.1 L BMPR1A (ALK3) n/a -4.4 L
BRAF 100 9.9 Z CDK1/cyclin A2 n/a 3.3 L CDK8/cyclin C n/a 0.1 L STK4 (MST1) Km app -4.4 Z
IGF1R Km app 9.7 Z KIT V559D T670I n/a 3.1 L MARK2 Km app 0.1 Z PRKCH (PKC eta) Km app -4.6 Z
MAPK14 (p38 alpha) Km app 9.7 Z SPHK2 10 3.1 A ICK n/a 0.0 L SGKL (SGK3) Km app -4.6 Z
LCK Km app 9.6 Z FGFR3 G697C n/a 3.1 L FGFR2 Km app 0.0 Z PI4KB (PI4K beta) Km app -4.7 A
MAPK11 (p38 beta) Km app 9.5 Z RIPK2 n/a 3.1 L AKT2 (PKB beta) Km app 0.0 Z PRKCE (PKC epsilon) Km app -4.9 Z
SRC Km app 9.5 Z PAK6 Km app 3.0 Z EPHB2 Km app -0.1 Z PHKG1 Km app -5.0 Z
CHEK1 (CHK1) Km app 9.3 Z LYN B Km app 3.0 Z TGFBR2 n/a -0.1 L PDGFRA D842V Km app -5.0 Z
CAMK2D (CaMKII delta) Km app 9.3 Z DAPK2 n/a 2.9 L TEK (Tie2) Km app -0.1 Z PRKG2 (PKG2) Km app -5.1 Z
PLK1 Km app 9.2 Z EPHA4 Km app 2.9 Z AURKA (Aurora A) Km app -0.1 Z TYRO3 (RSE) Km app -5.1 Z
RET Y791F Km app 9.2 Z PIK3CG (p110 gamma) Km app 2.9 A KIT D816H n/a -0.2 L TAOK2 (TAO1) Km app -5.1 Z
FLT3 Km app 9.1 Z HIPK1 (Myak) Km app 2.8 Z KIT N822K n/a -0.2 L EPHB4 Km app -5.3 Z
MAPK10 (JNK3) 100 9.0 Z ADRBK2 (GRK3) Km app 2.8 Z PRKACG (PRKAC gamma) n/a -0.2 L AURKC (Aurora C) Km app -5.4 Z
CSNK2A2 (CK2 alpha 2) Km app 8.7 Z STK17B (DRAK2) n/a 2.7 L TEK (TIE2) Y1108F n/a -0.3 L JAK1 Km app -5.7 Z […]

T1 sequence (P50750 whole entry): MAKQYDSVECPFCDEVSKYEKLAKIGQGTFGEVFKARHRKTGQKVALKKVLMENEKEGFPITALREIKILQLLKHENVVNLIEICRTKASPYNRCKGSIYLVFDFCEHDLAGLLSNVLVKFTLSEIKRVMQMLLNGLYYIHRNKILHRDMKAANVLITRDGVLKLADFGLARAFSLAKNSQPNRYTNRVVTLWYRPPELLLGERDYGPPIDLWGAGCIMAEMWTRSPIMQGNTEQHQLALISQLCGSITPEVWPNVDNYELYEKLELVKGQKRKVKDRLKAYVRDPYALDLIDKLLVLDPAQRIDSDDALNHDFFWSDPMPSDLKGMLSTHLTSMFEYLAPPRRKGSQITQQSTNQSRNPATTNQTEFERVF
T1 sequence (O60563 whole entry partner): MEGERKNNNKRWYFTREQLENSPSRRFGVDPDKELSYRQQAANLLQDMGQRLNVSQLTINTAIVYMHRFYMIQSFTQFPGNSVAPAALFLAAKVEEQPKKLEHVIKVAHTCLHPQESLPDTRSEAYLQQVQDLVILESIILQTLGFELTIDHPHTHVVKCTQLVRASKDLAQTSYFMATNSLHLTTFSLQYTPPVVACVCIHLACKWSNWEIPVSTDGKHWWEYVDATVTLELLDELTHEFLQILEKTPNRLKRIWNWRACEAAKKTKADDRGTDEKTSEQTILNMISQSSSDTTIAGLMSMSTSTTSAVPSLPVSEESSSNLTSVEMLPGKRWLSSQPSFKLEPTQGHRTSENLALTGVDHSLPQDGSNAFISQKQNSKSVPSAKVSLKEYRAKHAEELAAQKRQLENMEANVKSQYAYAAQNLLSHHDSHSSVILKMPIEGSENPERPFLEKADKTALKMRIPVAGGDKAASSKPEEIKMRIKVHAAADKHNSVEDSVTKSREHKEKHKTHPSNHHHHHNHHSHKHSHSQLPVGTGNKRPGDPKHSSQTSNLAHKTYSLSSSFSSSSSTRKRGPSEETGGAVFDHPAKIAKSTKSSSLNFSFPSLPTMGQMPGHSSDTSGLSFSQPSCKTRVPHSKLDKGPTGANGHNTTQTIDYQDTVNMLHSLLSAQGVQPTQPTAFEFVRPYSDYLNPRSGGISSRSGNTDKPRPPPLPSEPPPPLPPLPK

With CN(C(=O)CN1CCOCC1)c1ccc2sc3c(-c4cccc5c(=O)cc(N6CC7CCC(C6)O7)oc45)cccc3c2c1 [NU5455] as the compound, how does the inhibition at 1 µM read?
The inhibition at 1 µM was -1.4%.
